Measured values taken from ChEMBL document CHEMBL1201861, “Genomics of Drug Sensitity in Cancer screening data, Wellcome Trust Sanger Institute”.

Assays:
REH = test: cells; assay type: functional, cell-based, Homo sapiens; settings: Homo sapiens, REH;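 also: growth inhibition of REH cells determined with a cell viability read-out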
Description: SANGER: Inhibition of human REH cell growth in a cell viability assay.

SU-DHL-1 = test: SANGER: Inhibition of human SU-DHL-1 cell growth in a cell viability assay.; assay type: functional, cell-based; settings: Homo sapiens, SU-DHL-1
L-540 = test: cells; assay type: functional, cell-based, Homo sapiens; settings: Homo sapiens, L-540;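 also: growth inhibition of the human L-540 cell line, read out with a viability assay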
Description: SANGER: Inhibition of human L-540 cell growth in a cell viability assay.

EHEB = test: cells; assay type: functional, cell-based, Homo sapiens; settings: Homo sapiens, EHEB;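 also: growth inhibition of human EHEB cells, read out with a cell viability assay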
Description: SANGER: Inhibition of human EHEB cell growth in a cell viability assay.

DMS-153 = test: cells; assay type: functional, cell-based, Homo sapiens; settings: Homo sapiens, DMS-153
Description: SANGER: Inhibition of human DMS-153 cell growth in a cell viability assay.

RPMI-6666 = test: cells; assay type: functional, cell-based, Homo sapiens; settings: Homo sapiens, RPMI-6666
Description: SANGER: Inhibition of human RPMI-6666 cell growth in a cell viability assay.

EB2 = test: cells; assay type: functional, cell-based, Homo sapiens; settings: Homo sapiens, EB2;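 also: growth inhibition of EB2 cells, read out with a cell viability assay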
Description: SANGER: Inhibition of human EB2 cell growth in a cell viability assay.

NALM-6 = test: cells; assay type: functional, cell-based, Homo sapiens; settings: Homo sapiens, NALM-6;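 also: growth inhibition of NALM-6 cells, read out with a cell viability assay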
Description: SANGER: Inhibition of human NALM-6 cell growth in a cell viability assay.

LC-1F = test: cells; assay type: functional, cell-based, Homo sapiens; settings: Homo sapiens, LC-1F;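 also: growth inhibition of human LC-1F cells, read out with a cell viability assay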
Description: SANGER: Inhibition of human LC-1F cell growth in a cell viability assay.

LB647-SCLC = test: cells; assay type: functional, cell-based, Homo sapiens; settings: Homo sapiens, LB647-SCLC;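 also: cell growth inhibition, read out by a viability assay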
Description: SANGER: Inhibition of human LB647-SCLC cell growth in a cell viability assay.

Daudi = test: cells; assay type: functional, cell-based, Homo sapiens; settings: Homo sapiens, Daudi;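 also: growth inhibition of Daudi cells, read out by a viability assay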
Description: SANGER: Inhibition of human Daudi cell growth in a cell viability assay.

KP-N-YN = test: cells; assay type: functional, cell-based, Homo sapiens; settings: Homo sapiens, KP-N-YN;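 also: growth inhibition of KP-N-YN cells, read out with a cell viability assay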
Description: SANGER: Inhibition of human KP-N-YN cell growth in a cell viability assay.

OAW-28 = test: cells; assay type: functional, cell-based, Homo sapiens; settings: Homo sapiens, OAW-28;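 also: growth inhibition of OAW-28 cells, read out with a cell viability assay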
Description: SANGER: Inhibition of human OAW-28 cell growth in a cell viability assay.

SW1417 = test: cells; assay type: functional, cell-based, Homo sapiens; settings: Homo sapiens, SW1417;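 also: growth inhibition of human SW1417 cells, read out with a cell viability assay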
Description: SANGER: Inhibition of human SW1417 cell growth in a cell viability assay.

SW13 = test: cells; assay type: functional, cell-based, Homo sapiens; settings: Homo sapiens, SW13;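 also: IC50 is inhibition of SW13 cell growth, read out with a cell viability assay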
Description: SANGER: Inhibition of human SW13 cell growth in a cell viability assay.

RERF-LC-MS = test: cells; assay type: functional, cell-based, Homo sapiens; settings: Homo sapiens, RERF-LC-MS;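 also: growth inhibition of human RERF-LC-MS cells, read out by a cell viability assay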
Description: SANGER: Inhibition of human RERF-LC-MS cell growth in a cell viability assay.

HOP-92 = test: cells; assay type: functional, cell-based, Homo sapiens; settings: Homo sapiens, HOP-92;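 also: cell viability readout, with IC50 reflecting inhibition of HOP-92 cell growth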
Description: SANGER: Inhibition of human HOP-92 cell growth in a cell viability assay.

NCI-H2030 = test: cells; assay type: functional, cell-based, Homo sapiens; settings: Homo sapiens, NCI-H2030;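 also: growth inhibition of human NCI-H2030 cells, read out by a cell viability assay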
Description: SANGER: Inhibition of human NCI-H2030 cell growth in a cell viability assay.

NCI-H2170 = test: cells; assay type: functional, cell-based, Homo sapiens; settings: Homo sapiens, NCI-H2170;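 also: cell viability assay measuring growth inhibition of human NCI-H2170 cancer cells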
Description: SANGER: Inhibition of human NCI-H2170 cell growth in a cell viability assay.

MEL-JUSO = test: cells; assay type: functional, cell-based, Homo sapiens; settings: Homo sapiens, MEL-JUSO;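 also: growth inhibition of human MEL-JUSO cells, read out with a cell viability assay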
Description: SANGER: Inhibition of human MEL-JUSO cell growth in a cell viability assay.

SCC-4 = test: cells; assay type: functional, cell-based, Homo sapiens; settings: Homo sapiens, SCC-4;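 also: growth inhibition of human SCC-4 cells, read out as cell viability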
Description: SANGER: Inhibition of human SCC-4 cell growth in a cell viability assay.

HCC1954 = test: cells; assay type: functional, cell-based, Homo sapiens; settings: Homo sapiens, HCC1954;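 also: growth inhibition of human HCC1954 cells, read out with a cell viability assay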
Description: SANGER: Inhibition of human HCC1954 cell growth in a cell viability assay.

MDA-MB-415 = test: cells; assay type: functional, cell-based, Homo sapiens; settings: Homo sapiens, MDA-MB-415
MKN-7 = test: cells; assay type: functional, cell-based, Homo sapiens; settings: Homo sapiens, MKN-7;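 also: growth inhibition of MKN-7 cells, read out with a cell viability assay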
Description: SANGER: Inhibition of human MKN7 cell growth in a cell viability assay.

EFO-21 = test: cells; assay type: functional, cell-based, Homo sapiens; settings: Homo sapiens, EFO-21;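 also: growth inhibition of EFO-21 cells measured with a viability assay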
Description: SANGER: Inhibition of human EFO-21 cell growth in a cell viability assay.

NCI-H2405 = test: cells; assay type: functional, cell-based, Homo sapiens; settings: Homo sapiens, NCI-H2405;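 also: growth inhibition of the human cell line, read out with a cell viability assay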
Description: SANGER: Inhibition of human NCI-H2405 cell growth in a cell viability assay.

ACHN = test: cells; assay type: functional, cell-based, Homo sapiens; settings: Homo sapiens, ACHN;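 also: cell viability read-out used to gauge how strongly growth of human ACHN cells is suppressed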
Description: SANGER: Inhibition of human ACHN cell growth in a cell viability assay.

BHT-101 = test: cells; assay type: functional, cell-based, Homo sapiens; settings: Homo sapiens, BHT-101
Description: SANGER: Inhibition of human BHT-101 cell growth in a cell viability assay.

SAOS-2 = test: cells; assay type: functional, cell-based, Homo sapiens; settings: Homo sapiens, SAOS-2;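 also: growth inhibition of human Saos-2 cells determined by a cell viability assay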
Description: SANGER: Inhibition of human Saos-2 cell growth in a cell viability assay.

RCM-1 = test: cells; assay type: functional, cell-based, Homo sapiens; settings: Homo sapiens, RCM-1;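 also: growth inhibition of the RCM-1 line, determined with a cell viability readout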
Description: SANGER: Inhibition of human RCM-1 cell growth in a cell viability assay.

NCI-H1703 = test: cells; assay type: functional, cell-based, Homo sapiens; settings: Homo sapiens, NCI-H1703;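 also: growth inhibition of NCI-H1703 cells, read out via a cell viability assay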
Description: SANGER: Inhibition of human NCI-H1703 cell growth in a cell viability assay.

BPH-1 = test: cells; assay type: functional, cell-based, Homo sapiens; settings: Homo sapiens, BPH-1;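 also: cell viability assay measuring growth inhibition of human BPH-1 cells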
Description: SANGER: Inhibition of human BPH-1 cell growth in a cell viability assay.

NY = test: cells; assay type: functional, cell-based, Homo sapiens; settings: Homo sapiens, NY
Description: SANGER: Inhibition of human NY cell growth in a cell viability assay.

KYSE-150 cell line = test: cells; assay type: functional, cell-based, Homo sapiens; settings: Homo sapiens, KYSE-150;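 also: growth inhibition of human KYSE-150 cells, read out with a cell viability assay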
Description: SANGER: Inhibition of human KYSE-150 cell growth in a cell viability assay.

CAKI-1 = test: cells; assay type: functional, cell-based, Homo sapiens; settings: Homo sapiens, CAKI-1;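 also: growth inhibition of CAKI-1 cells, measured by a cell viability assay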
Description: SANGER: Inhibition of human CAKI-1 cell growth in a cell viability assay.

IGR-1 = test: cells; assay type: functional, cell-based, Homo sapiens; settings: Homo sapiens, IGR-1;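 also: growth inhibition of human IGR-1 cells, read out with a cell viability assay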
Description: SANGER: Inhibition of human IGR-1 cell growth in a cell viability assay.

SW-620 = test: cells; assay type: functional, cell-based, Homo sapiens; settings: Homo sapiens, SW-620;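 also: growth inhibition of human SW-620 cells, measured by a cell viability assay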
Description: SANGER: Inhibition of human SW620 cell growth in a cell viability assay.

HT1197 = test: cells; assay type: functional, cell-based, Homo sapiens, HT-1197; settings: Homo sapiens, HT1197
Description: SANGER: Inhibition of human HT-1197 cell growth in a cell viability assay.

NCI-H460 = test: cells; assay type: functional, cell-based, Homo sapiens; settings: Homo sapiens, NCI-H460;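 also: cell viability assay scoring growth inhibition of human NCI-H460 cells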
Description: SANGER: Inhibition of human NCI-H460 cell growth in a cell viability assay.

SCC-9 = test: cells; assay type: functional, cell-based, Homo sapiens; settings: Homo sapiens, SCC-9;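 also: Read-out is a cell viability assay, with values giving inhibition of cell growth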
Description: SANGER: Inhibition of human SCC-9 cell growth in a cell viability assay.

NCI-H727 = test: cells; assay type: functional, cell-based, Homo sapiens; settings: Homo sapiens, NCI-H727;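 also: growth inhibition of human NCI-H727 cells, read out with a cell viability assay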
Description: SANGER: Inhibition of human NCI-H727 cell growth in a cell viability assay.

HMV-2 cell line = test: cells; assay type: functional, cell-based, Homo sapiens; settings: Homo sapiens, HMV-2;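 also: growth inhibition of HMV-II cells, read out with a cell viability assay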
Description: SANGER: Inhibition of human HMV-II cell growth in a cell viability assay.

Ca-Ski = test: cells; assay type: functional, cell-based, Homo sapiens; settings: Homo sapiens, Ca-Ski;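 also: cell viability assay measuring inhibition of Ca-Ski cell growth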
Description: SANGER: Inhibition of human Ca-Ski cell growth in a cell viability assay.

NCI-H2452 = test: cells; assay type: functional, cell-based, Homo sapiens; settings: Homo sapiens, NCI-H2452;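 also: growth inhibition of NCI-H2452 cells, read out with a cell viability assay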
Description: SANGER: Inhibition of human NCI-H2452 cell growth in a cell viability assay.

C3A = test: cells; assay type: functional, cell-based, Homo sapiens; settings: Homo sapiens, C3A;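 also: growth inhibition of C3A human cells, quantified with a cell viability readout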
Description: SANGER: Inhibition of human C3A cell growth in a cell viability assay.

RD = test: cells; assay type: functional, cell-based, Homo sapiens; settings: Homo sapiens, RD
Description: SANGER: Inhibition of human RD cell growth in a cell viability assay.

Detroit 562 = test: cells; assay type: functional, cell-based, Homo sapiens; settings: Homo sapiens, Detroit 562;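 also: growth inhibition of human Detroit 562 cells, read out by a cell viability assay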
Description: SANGER: Inhibition of human Detroit562 cell growth in a cell viability assay.

SMILES: OCCCNc1cc(-c2ccnc(Nc3cccc(Cl)c3)n2)ccn1
- IC50 (REH): > 256 nM
- IC50 (SU-DHL-1): 211 nM
- IC50 (L-540): 193 nM
- IC50 (EHEB): 191 nM
- IC50 (DMS-153): > 256 nM
- IC50 (RPMI-6666): 50.4 nM
- IC50 (EB2): > 256 nM
- IC50 (NALM-6): 46.8 nM
- IC50 (LC-1F): 117 nM
- IC50 (LB647-SCLC): > 256 nM
- IC50 (Daudi): 55.3 nM

SMILES: COc1cc(N2CCN(C)CC2)ccc1Nc1ncc2c(n1)N(C)c1ccccc1C(=O)N2C
- IC50 (REH): > 8000 nM
- IC50 (SU-DHL-1): > 8000 nM
- IC50 (KP-N-YN): > 8000 nM
- IC50 (L-540): > 8000 nM
- IC50 (DMS-153): > 8000 nM
- IC50 (RPMI-6666): 7860 nM
- IC50 (EB2): 2820 nM
- IC50 (NALM-6): 4960 nM
- IC50 (LC-1F): > 8000 nM
- IC50 (LB647-SCLC): > 8000 nM
- IC50 (Daudi): > 8000 nM

SMILES: Nc1ccn([C@@H]2O[C@H](CO)[C@@H](O)C2(F)F)c(=O)n1 [GEMCITABINE]
- IC50 (OAW-28): 45.4 nM
- IC50 (SW1417): > 1020 nM
- IC50 (SW13): 330 nM
- IC50 (REH): 14.5 nM
- IC50 (SU-DHL-1): 62.7 nM
- IC50 (RERF-LC-MS): 177 nM
- IC50 (HOP-92): 951 nM
- IC50 (NCI-H2030): 30.4 nM
- IC50 (L-540): 1.6 nM
- IC50 (NCI-H2170): 12 nM
- IC50 (EHEB): 227 nM
- IC50 (DMS-153): > 1020 nM
- IC50 (MEL-JUSO): < 4 nM
- IC50 (SCC-4): 212 nM
- IC50 (HCC1954): > 1020 nM
- IC50 (RPMI-6666): < 4 nM
- IC50 (MDA-MB-415): > 1020 nM
- IC50 (MKN-7): > 1020 nM
- IC50 (EB2): 2.01 nM
- IC50 (EFO-21): 53.7 nM
- IC50 (NCI-H2405): 19.1 nM
- IC50 (ACHN): < 4 nM
- IC50 (BHT-101): 210 nM
- IC50 (NALM-6): < 4 nM
- IC50 (SAOS-2): > 1020 nM
- IC50 (RCM-1): 665 nM
- IC50 (LC-1F): > 1020 nM
- IC50 (NCI-H1703): 31.8 nM
- IC50 (BPH-1): 20.3 nM
- IC50 (NY): 30.2 nM
- IC50 (KYSE-150 cell line): 8.47 nM
- IC50 (CAKI-1): > 1020 nM
- IC50 (IGR-1): 14.4 nM
- IC50 (SW-620): 1.35 nM
- IC50 (HT1197): > 1020 nM
- IC50 (NCI-H460): 13.5 nM
- IC50 (SCC-9): > 1020 nM
- IC50 (NCI-H727): 2.51 nM
- IC50 (LB647-SCLC): 1.18 nM
- IC50 (HMV-2 cell line): 24.3 nM
- IC50 (Ca-Ski): 7.09 nM
- IC50 (NCI-H2452): > 1020 nM
- IC50 (C3A): 8.84 nM
- IC50 (RD): 130 nM
- IC50 (Detroit 562): 10.4 nM
- IC50 (Daudi): 569 nM

SMILES: CC[C@H](CO)Nc1nc(NCc2ccccc2)c2ncn(C(C)C)c2n1 [SELICICLIB]
- IC50 (REH): > 16000 nM
- IC50 (SU-DHL-1): > 16000 nM
- IC50 (L-540): > 16000 nM
- IC50 (EHEB): > 16000 nM
- IC50 (DMS-153): > 16000 nM
- IC50 (RPMI-6666): 13900 nM
- IC50 (EB2): > 16000 nM
- IC50 (NALM-6): > 16000 nM
- IC50 (LC-1F): > 16000 nM
- IC50 (LB647-SCLC): > 16000 nM
- IC50 (Daudi): > 16000 nM

SMILES: CC(=O)O[C@H]1C(=O)[C@@]2(C)[C@H]([C@H](OC(=O)c3ccccc3)[C@]3(O)C[C@H](OC(=O)[C@H](O)[C@@H](NC(=O)c4ccccc4)c4ccccc4)C(C)=C1C3(C)C)[C@]1(OC(C)=O)CO[C@@H]1C[C@@H]2O [PACLITAXEL]
- IC50 (REH): > 102 nM
- IC50 (SU-DHL-1): > 102 nM
- IC50 (L-540): 46.4 nM
- IC50 (EHEB): > 102 nM
- IC50 (DMS-153): > 102 nM
- IC50 (RPMI-6666): 21.5 nM
- IC50 (EB2): > 102 nM
- IC50 (NALM-6): 12.1 nM
- IC50 (LC-1F): > 102 nM
- IC50 (LB647-SCLC): 10.5 nM
- IC50 (Daudi): 17.1 nM

SMILES: N[C@@H](CSC(c1ccccc1)(c1ccccc1)c1ccccc1)C(=O)O [S-TRITYL-L-CYSTEINE]
- IC50 (REH): > 5120 nM
- IC50 (SU-DHL-1): > 5120 nM
- IC50 (L-540): > 5120 nM
- IC50 (EHEB): > 5120 nM
- IC50 (DMS-153): > 5120 nM
- IC50 (RPMI-6666): > 5120 nM
- IC50 (EB2): > 5120 nM
- IC50 (NALM-6): 676 nM
- IC50 (LC-1F): 3490 nM
- IC50 (LB647-SCLC): > 5120 nM
- IC50 (Daudi): 1170 nM

SMILES: CCN(CC)CCNC(=O)c1c(C)[nH]c(/C=C2\C(=O)Nc3ccc(F)cc32)c1C [SUNITINIB]
- IC50 (REH): > 8000 nM
- IC50 (SU-DHL-1): 4800 nM
- IC50 (L-540): > 8000 nM
- IC50 (EHEB): > 8000 nM
- IC50 (DMS-153): > 8000 nM
- IC50 (RPMI-6666): 3540 nM
- IC50 (EB2): > 8000 nM
- IC50 (NALM-6): 2900 nM
- IC50 (LC-1F): > 8000 nM
- IC50 (LB647-SCLC): > 8000 nM
- IC50 (Daudi): > 8000 nM
